This passage reports IC50 results from patent publication US10849881B2, “Octahydro-cyclobuta[1,2-c;3,4-c′]dipyrrol-2-yl” (Hoffmann-La Roche Inc., priority 2013, dated 2020).

For the experiment, the target named is ATX (human His-tagged) (Homo sapiens (Human), UniProt Q13822). Put plainly: Human ATX enzyme inhibition assay (fluorescence quenching, MR121 substrate). It is filed as biochemical. The following applies: 30 nM ATX, 1 μM MR121 substrate, 30° C., pH 8.0. Put shortly: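 Fluorescence quenching assay with MR121/tryptophan-labelled substrate analogue in Tris-HCl buffer (140 mM NaCl, CaCl2, MgCl2, 0.01% Triton X-100, pH 8.0). Serially diluted compounds were preincubated 15 min at 30 °C with 30 nM ATX (final), then 1 µM substrate (final) added and incubated 15 min at 30 °C.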

As for `O=C(c1ccc2[nH]nnc2c1)N1C[C@@H]2[C@H](C1)[C@H]1CN(S(=O)(=O)c3ccc(-c4ccc(F)cc4)cc3)C[C@@H]21` [Example 3, (1H-Benzotriazol-5-yl)-[(3aS,3bR,6aS,6bR)-5-(4′-fluoro-biphenyl-4-sulfonyl)-octahydro-cyclobuta[1,2-c;3,4-c′]dipyrrol-2-yl]-methanone], the IC50 came out at 173 nM.

For `O=C(c1ccc2[nH]nnc2c1)N1C[C@@H]2[C@H](C1)[C@H]1CN(C(=O)c3ccc(C(F)(F)F)c(OCC4CC4)n3)C[C@@H]21` [Example 1.093, (1H-benzotriazol-5-yl)-[(3aS,3bR,6aS,6bR)-5-(6-cyclopropylmethoxy-5-trifluoromethyl-pyridine-2-carbonyl)-octahydro-cyclobuta[1,2-c;3,4-c′]dipyrrol-2-yl]-methanone], the 50% inhibitory concentration (IC50) worked out at 17 nM.

In turn, `O=C(c1cnc(OCC(F)(F)F)c(Br)c1)N1C[C@@H]2[C@H](C1)[C@H]1CN(C(=O)c3ccc4[nH]nnc4c3)C[C@@H]21` [Example 1.100, (1H-benzotriazol-5-yl)-{(3aS,3bS,6aR,6bR)-5-[5-bromo-6-(2,2,2-trifluoro-ethoxy)-pyridine-3-carbonyl]-octahydro-cyclobuta[1,2-c;3,4-c′]dipyrrol-2-yl}-methanone] came in with an IC50 of 10 nM.

`O=C(c1ccc2[nH]nnc2c1)N1C[C@@H]2[C@H](C1)[C@H]1CN(C(=O)c3ccc(-c4ccc(Cl)cc4)cn3)C[C@@H]21` [Example 1.072, [(3aR,3bS,6aR,6bS)-5-(1H-benzotriazole-5-carbonyl)-octahydro-cyclobuta[1,2-c;3,4-c′]dipyrrol-2-yl]-[5-(4-chloro-phenyl)-pyridin-2-yl]-methanone] returned an IC50 of 6 nM. Compared with the last molecule, the IC50 is about 1.7-fold lower.

Molecule `Cn1c(C(=O)N2C[C@@H]3[C@H]4CN(C(=O)c5ccc6[nH]nnc6c5)C[C@H]4[C@@H]3C2)cc2cc(OC(F)(F)F)ccc21` [Example 1.032, [(3aR,3bS,6aR,6bS)-5-(1H-benzotriazole-5-carbonyl)-octahydro-cyclobuta[1,2-c;3,4-c′]dipyrrol-2-yl]-(1-methyl-5-trifluoromethoxy-1H-indol-2-yl)-methanone] came in with an IC50 of 13 nM.

For `COc1cc(C(=O)N2C[C@@H]3[C@H]4CN(C(=O)c5ccc6[nH]nnc6c5)C[C@H]4[C@@H]3C2)nc2ccccc12` [Example 1.029, [(3aR,3bS,6aR,6bS)-5-(1H-benzotriazole-5-carbonyl)-octahydro-cyclobuta[1,2-c;3,4-c′]dipyrrol-2-yl]-(4-methoxy-quinolin-2-yl)-methanone], the concentration for half-maximal inhibition (IC50) was 70 nM.

In the case of `N#CCn1c(C(=O)N2C[C@@H]3[C@H]4CN(C(=O)c5ccc6[nH]nnc6c5)C[C@H]4[C@@H]3C2)cc2ccccc21` [Example 1.036, {2-[(3aR,3bS,6aR,6bS)-5-(1H-benzotriazole-5-carbonyl)-octahydro-cyclobuta[1,2-c;3,4-c′]dipyrrole-2-carbonyl]-indol-1-yl}-acetonitrile], half-maximal inhibition (IC50) required 130 nM.

`CCOc1cc(C(=O)N2C[C@@H]3[C@H]4CN(C(=O)c5ccc6[nH]nnc6c5)C[C@H]4[C@@H]3C2)nc2ccc(Cl)cc12` [Example 1.096, [(3aR,3bS,6aR,6bS)-5-(1H-benzotriazole-5-carbonyl)-octahydro-cyclobuta[1,2-c;3,4-c′]dipyrrol-2-yl]-(6-chloro-4-ethoxy-quinolin-2-yl)-methanone] returned an IC50 of 12 nM.

`O=C(c1ccc2[nH]nnc2c1)N1C[C@@H]2[C@H](C1)[C@H]1CN(C(=O)c3cc4cc(OC(F)(F)F)ccc4[nH]3)C[C@@H]21` [Example 1.010, [(3aR,3bS,6aR,6bS)-5-(1H-benzotriazole-5-carbonyl)-octahydro-cyclobuta[1,2-c;3,4-c′]dipyrrol-2-yl]-(5-trifluoromethoxy-1H-indol-2-yl)-methanone]: half-maximal inhibition (IC50) was put at 16 nM.

The molecule `O=C(COc1ccc(OC(F)(F)F)cc1)N1C[C@@H]2[C@H](C1)[C@H]1CN(C(=O)c3ccc4[nH]nnc4c3)C[C@@H]21` [Example 1.008, 1-[(3aR,3bS,6aR,6bS)-5-(1H-benzotriazole-5-carbonyl)-octahydro-cyclobuta[1,2-c;3,4-c′]dipyrrol-2-yl]-2-(4-trifluoromethoxy-phenoxy)-ethanone] came in with an IC50 of 36 nM.

`COc1cc(C(=O)N2C[C@@H]3[C@H](C2)[C@H]2CN(C(=O)[C@@H]4CCc5[nH]nnc5C4)C[C@@H]32)cc2ccccc12` [Example 1.044, (4-methoxy-naphthalen-2-yl)-[(3aR,3bS,6aR,6bS)-5-((R)-4,5,6,7-tetrahydro-1H-benzotriazole-5-carbonyl)-octahydro-cyclobuta[1,2-c;3,4-c′]dipyrrol-2-yl]-methanone]: the IC50 amounted to 13 nM.

In turn, `O=C(c1ccc2[nH]nnc2c1)N1C[C@@H]2[C@H](C1)[C@H]1CN(C(=O)c3cc(OCC4CC4)c4ccccc4n3)C[C@@H]21` [Example 1.071, [(3aR,3bS,6aR,6bS)-5-(1H-benzotriazole-5-carbonyl)-octahydro-cyclobuta[1,2-c;3,4-c′]dipyrrol-2-yl]-(4-cyclopropylmethoxy-quinolin-2-yl)-methanone] returned a 50% inhibitory concentration (IC50) of 3.5 nM.

In turn, `COc1cc2ccccc2cc1C(=O)N1C[C@@H]2[C@H]3CN(C(=O)c4ccc5[nH]nnc5c4)C[C@H]3[C@@H]2C1` [Example 1.021, [(3aS,3bS,6aR,6bR)-5-(1H-benzotriazole-5-carbonyl)-octahydro-cyclobuta[1,2-c;3,4-c′]dipyrrol-2-yl]-(3-methoxy-naphthalen-2-yl)-methanone] gave an IC50 of 265 nM.

`O=C(c1ccc2[nH]nnc2c1)N1C[C@@H]2[C@H](C1)[C@H]1CN(S(=O)(=O)c3ccc4cc(Cl)ccc4c3)C[C@@H]21` [Example 3.001, (1H-Benzotriazol-5-yl)-[(3aS,3bR,6aS,6bR)-5-(6-chloro-naphthalene-2-sulfonyl)-octahydro-cyclobuta[1,2-c;3,4-c′]dipyrrol-2-yl]-methanone] displayed an IC50 of 232 nM.

As to `COc1cccc(C(=O)N2C[C@@H]3[C@H](C2)[C@H]2CN(C(=O)c4ccc5[nH]nnc5c4)C[C@@H]32)c1` [Example 1.028, [(3aS,3bS,6aR,6bR)-5-(1H-benzotriazole-5-carbonyl)-octahydro-cyclobuta[1,2-c;3,4-c′]dipyrrol-2-yl]-(3-methoxy-phenyl)-methanone], the IC50 amounted to 2830 nM.

The molecule `CC(C)Oc1cc(C(=O)N2C[C@@H]3[C@H]4CN(C(=O)c5ccc6[nH]nnc6c5)C[C@H]4[C@@H]3C2)cc2c1ccn2C` [Example 1.065, [(3aS,3bS,6aR,6bR)-5-(1H-benzotriazole-5-carbonyl)-octahydro-cyclobuta[1,2-c;3,4-c′]dipyrrol-2-yl]-(4-isopropoxy-1-methyl-1H-indol-6-yl)-methanone] gave a 50% inhibitory concentration (IC50) of 6.5 nM.

As for `N#Cc1ccc2cc(C(=O)N3C[C@@H]4[C@H](C3)[C@H]3CN(C(=O)c5ccc6[nH]nnc6c5)C[C@@H]43)ccc2c1` [Example 1.007, 6-[(3aS,3bS,6aR,6bR)-5-(1H-benzotriazole-5-carbonyl)-octahydro-cyclobuta[1,2-c;3,4-c′]dipyrrole-2-carbonyl]-naphthalene-2-carbonitrile], the IC50 is 62 nM.

`O=C(c1ccc2[nH]nnc2c1)N1C[C@@H]2[C@H](C1)[C@H]1CN(C(=O)c3ccc(C(F)(F)F)c(OCC(F)(F)F)n3)C[C@@H]21` [Example 1.097, (1H-benzotriazol-5-yl)-{(3aS,3bR,6aS,6bR)-5-[6-(2,2,2-trifluoro-ethoxy)-5-trifluoromethyl-pyridine-2-carbonyl]-octahydro-cyclobuta[1,2-c;3,4-c′]dipyrrol-2-yl}-methanone] yielded an IC50 of 25 nM.

As for `Cc1cc(C(=O)N2C[C@@H]3[C@H]4CN(C(=O)c5ccc6[nH]nnc6c5)C[C@H]4[C@@H]3C2)nc2ccccc12` [Example 1.047, [(3aR,3bS,6aR,6bS)-5-(1H-benzotriazole-5-carbonyl)-octahydro-cyclobuta[1,2-c;3,4-c′]dipyrrol-2-yl]-(4-methyl-quinolin-2-yl)-methanone], half-maximal inhibition (IC50) was put at 205 nM.

As for `CCOc1cc(C(=O)N2C[C@@H]3[C@H]4CN(C(=O)c5ccc(S(N)(=O)=O)nc5)C[C@H]4[C@@H]3C2)nc2ccccc12` [Example 1.083, 5-[(3aS,3bR,6aS,6bR)-5-(4-ethoxy-quinoline-2-carbonyl)-octahydro-cyclobuta[1,2-c;3,4-c′]dipyrrole-2-carbonyl]-pyridine-2-sulfonic acid amide], inhibition was half-maximal at 154 nM (IC50).

As for `O=C(c1ccc2[nH]nnc2c1)N1C[C@@H]2[C@H](C1)[C@H]1CN(C(=O)c3cc4ccccc4c(OCC4CC4)n3)C[C@@H]21` [Example 1.058, [(3aR,3bS,6aR,6bS)-5-(1H-benzotriazole-5-carbonyl)-octahydro-cyclobuta[1,2-c;3,4-c′]dipyrrol-2-yl]-(1-cyclopropylmethoxy-isoquinolin-3-yl)-methanone], the midpoint of inhibition, the IC50, lay at 5.3 nM.

The molecule `O=C(c1ccc(-c2ccc(Cl)cc2)nc1)N1C[C@@H]2[C@H](C1)[C@H]1CN(C(=O)c3ccc4[nH]nnc4c3)C[C@@H]21` [Example 1.045, [(3aS,3bS,6aR,6bR)-5-(1H-benzotriazole-5-carbonyl)-octahydro-cyclobuta[1,2-c;3,4-c′]dipyrrol-2-yl]-[6-(4-chloro-phenyl)-pyridin-3-yl]-methanone] showed an IC50 of 11 nM. This IC50 is about 2.1-fold higher than that of the molecule before.

Take “(1H-benzotriazol-yl)-{(3aS,3bS,6aR,6bR)-5-[5-bromo-2-methyl-6-(2,2,2-trifluoro-ethoxy)-pyridine-3-carbonyl]-octahydro-cyclobuta[1,2-c;3,4-c′]dipyrrol-2-yl}-methanone [Example 1.103]”: the IC50 amounted to 27 nM. Compared with the last molecule, the IC50 is about 2.5-fold higher.

As a reminder, the IC50 is the concentration that gives 50% inhibition. Lower therefore signals greater potency in that assay.
